19 compounds from US11130748B2, “Compounds” (MISSION THERAPEUTICS LIMITED, priority 2015, dated 2021) can be followed below.

The pIC50 is the IC50 on a negative log10 scale, so that one unit is a factor of ten.

Each structure is given as a SMILES string. pIC50: −log10 of the molar value.

This experiment deals with USP30 (Homo sapiens (Human), UniProt Q70CQ3). The experiment in a line: USP30 biochemical IC50 assay. The settings on record: fluorescence polarisation, TAMRA labelled peptide linked to ubiquitin; 30 min pre-incubation, 2 hr read; read-out: IC50 range. On the procedure: USP30 Biochemical IC50 Assay
Sequence of USP30 (Q70CQ3 57-517): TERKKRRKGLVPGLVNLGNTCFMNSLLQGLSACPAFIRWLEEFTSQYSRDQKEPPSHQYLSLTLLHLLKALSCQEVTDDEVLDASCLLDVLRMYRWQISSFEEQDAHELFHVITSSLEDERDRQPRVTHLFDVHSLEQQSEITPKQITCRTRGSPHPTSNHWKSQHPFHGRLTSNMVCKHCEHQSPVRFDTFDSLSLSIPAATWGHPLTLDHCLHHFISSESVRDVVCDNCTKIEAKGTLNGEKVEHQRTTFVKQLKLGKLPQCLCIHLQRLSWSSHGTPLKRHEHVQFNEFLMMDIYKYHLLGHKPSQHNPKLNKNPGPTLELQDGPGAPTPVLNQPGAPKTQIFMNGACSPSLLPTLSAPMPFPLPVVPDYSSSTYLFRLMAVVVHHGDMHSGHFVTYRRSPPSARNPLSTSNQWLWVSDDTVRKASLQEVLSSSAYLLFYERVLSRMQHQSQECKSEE
Dilution plates were prepared at 21 times the final concentration (2100 μM for a final concentration of 100 μM) in 50% DMSO in a 96-well polypropylene V-bottom plate (Greiner #651201). A typical 8-point dilution series to be 100, 30, 10, 3, 1, 0.3, 0.1, 0.03 μM final. Reactions were performed in duplicate in black 384 well plates (small volume, Greiner 784076) in a final reaction volume of 21 μl. Either 1 μl of 50% DMSO or diluted compound was added to the plate. USP30 was diluted in reaction buffer (40 mM Tris, pH 7.5, 0.005% Tween 20, 0.5 mg/ml BSA, 5 mM beta-mercaptoethanol) to the equivalent of 0.05 μl/well and 10 μl of diluted USP30 was added to the compound. Enzyme and compound were incubated for 30 min at room temp. Reactions were initiated by the addition of 50 nM of TAMRA labelled peptide linked to ubiquitin via an iso-peptide bond as fluorescence polarisation substrate. Reactions were read immediately after addition of substrate and following a 2 hr incubation at room temperature. Readings were performed on a Pherastar Plus (BMG Labtech). λ Excitation 540 nm; λ Emission 590 nm.
On to `CC(Nc1nc2ccc(-c3cn[nH]c3)cc2s1)C1CCN(C#N)C1` (stereo not shown) [Example 49, 3-(1-((6-(1H-Pyrazol-4-yl)benzo[d]thiazol-2-yl)amino)ethyl)pyrrolidine-1-carbonitrile], for which the pIC50 was 6.00 to 7.00.
Next, `N#CN1CC[C@H](CNC(=O)c2cn3cc(-c4ccn[nH]4)ccc3n2)C1` [Example 76]: 5.00 to 6.00.
For the compound `N#CN1CCC(CNc2ccnc(N3Cc4ccccc4C3)c2)C1` (stereo not shown) [Example 18, 3-(((2-(isoindolin-2-yl)pyridin-4-yl)amino)methyl)pyrrolidine-1-carbonitrile], the negative-log IC50 (pIC50) was 6.00 to 7.00.
On to `N#CN1CCC(CNc2nc3ccc(F)cc3s2)C1` (stereo not shown) [Example 2, 3-(((6-Fluorobenzo[d]thiazol-2-yl)amino)methyl)pyrrolidine-1-carbonitrile], for which the negative-log IC50 (pIC50) is 5.00 to 6.00.
As for `N#CN1CC[C@H](CNC(=O)c2cn(Cc3ccccc3)cn2)C1` [Example 78, (R)-1-Benzyl-N-((1-cyanopyrrolidin-3-yl)methyl)-1H-imidazole-4-carboxamide], the negative-log IC50 (pIC50) is 6.00 to 7.00.
`N#CN1CC[C@H](CNC(=O)c2cc3ccccn3n2)C1` [Example 36, (R)—N-((1-Cyanopyrrolidin-3-yl)methyl)pyrazolo[1,5-a]pyridine-2-carboxamide]: the pIC50 was 5.00 to 6.00.
Regarding `N#CN1CC[C@H](CNC(=O)c2cc3ccccc3cn2)C1` [Example 57], the negative-log IC50 (pIC50) is 5.00 to 6.00.
With `COc1ccc(/C=C/C(=O)NCC2CCN(C#N)C2)c(F)c1` (stereo not shown) [Example 32, (E)-N-((1-Cyanopyrrolidin-3-yl)methyl)-3-(2-fluoro-4-methoxyphenyl)acrylamide], the negative logarithm of the IC50 (pIC50) is 6.00 to 7.00.
For `N#CN1CC[C@H](CNC(=O)c2cn(-c3ccccc3)cn2)C1` [Example 70, (R)—N-((1-Cyanopyrrolidin-3-yl)methyl)-1-phenyl-1H-imidazole-4-carboxamide], the negative logarithm of the IC50 (pIC50) was 5.00 to 6.00.
On to `Cc1cc(C(=O)NCC2CCN(C#N)C2)nn1Cc1ccccc1` (stereo not shown) [Example 40, 1-Benzyl-N-((1-cyanopyrrolidin-3-yl)methyl)-5-methyl-1H-pyrazole-3-carboxamide], for which the negative logarithm of the IC50 (pIC50) was 5.00 to 6.00.
In the case of `N#CN1CC[C@H](CNC(=O)c2cc(-c3ccccc3)ccn2)C1` [Example 59], the negative-log IC50 (pIC50) is 6.00 to 7.00.
As to `N#Cc1cccc(-n2cnc(C(=O)NC[C@H]3CCN(C#N)C3)c2)c1` [Example 71, (R)-1-(3-Cyanophenyl)-N-((1-cyanopyrrolidin-3-yl)methyl)-1H-imidazole-4-carboxamide], the pIC50 was greater than 7.00.
Consider `N#CC(Nc1nc2ccccc2s1)C1CCN(C#N)C1` (stereo not shown) [Example 52, 3-((Benzo[d]thiazol-2-ylamino)(cyano)methyl)pyrrolidine-1-carbonitrile], for which the negative logarithm of the IC50 (pIC50) was 6.00 to 7.00.
For the compound `Cc1nn(C)cc1-c1ccc(NCC2CCN(C#N)C2)cc1` (stereo not shown) [Example 14, 3-(((4-(1,3-Dimethyl-1H-pyrazol-4-yl)phenyl)amino)methyl) pyrrolidine-1-carbonitrile], the negative logarithm of the IC50 (pIC50) was 5.00 to 6.00.
With `N#CN1CCC(CNc2nccc(-c3ccccc3)n2)C1` (stereo not shown) [Example 8, 3-(((4-Phenylpyrimidin-2-yl)amino)methyl)pyrrolidine-1-carbonitrile], the pIC50 was 5.00 to 6.00.
Take `Cc1nn(C)cc1-c1cccc(NCC2CCN(C#N)C2)c1` (stereo not shown) [Example 13, 3-(((3-(1,3-dimethyl-1H-pyrazol-4-yl)phenyl)amino)methyl)pyrrolidine-1-carbonitrile]: the pIC50 was 5.00 to 6.00.
For the compound `N#CN1CC[C@H](CNc2ncc(-c3ccccc3)s2)C1` [Example 9, (R)-3-(((5-Phenylthiazol-2-yl)amino)methyl)pyrrolidine-1-carbonitrile], the pIC50 is greater than 7.00.
Take `N#CN1CCC(CNC(=O)Nc2ccc(Cl)cc2Cl)C1` (stereo not shown) [Example 44, 1-((1-Cyanopyrrolidin-3-yl)methyl)-3-(2,4-dichlorophenyl)urea]: the negative logarithm of the IC50 (pIC50) is 6.00 to 7.00.
Under `N#CN1CCC(CNc2cccc(-c3ccccc3)n2)C1` (stereo not shown) [Example 7, 3-(((6-Phenylpyridin-2-yl)amino)methyl)pyrrolidine-1-carbonitrile] stands 5.00 to 6.00.
